Test results from ChEMBL document CHEMBL1800064, “Biaryl ethers as potent allosteric inhibitors of reverse transcriptase and its key mutant viruses: aryl substituted pyrazole as a surrogate for the pyrazolopyridine motif” (Bioorg Med Chem Lett, 2010).

Legend:
[1] = tested on: Human immunodeficiency virus 1; test: Antiviral activity against HIV1 isolate NL4-3 harboring reverse transcriptase K103N/P225H double mutant assessed as inhibition of viral replication by phenoscreen assay in presence of 40% normal human serum; format: functional, organism-based; settings: Human immunodeficiency virus 1, isolate NL4-3
[2] = tested on: Human immunodeficiency virus 1; test: Antiviral activity against HIV1 isolate NL4-3 harboring reverse transcriptase G190S mutant assessed as inhibition of viral replication by phenoscreen assay in presence of 40% normal human serum; format: functional, organism-based; settings: Human immunodeficiency virus 1, isolate NL4-3
[3] = tested on: Human immunodeficiency virus 1; test: Ratio IC50 for HIV1 isolate NL4-3 harboring reverse transcriptase K103N/Y181C double mutant to IC50 for HIV1 isolate NL4-3 harboring wild type reverse transcriptase by phenoscreen assay in presence of 40% normal human serum; format: functional
[4] = tested on: Human immunodeficiency virus 1; test: Ratio IC50 for HIV1 isolate NL4-3 harboring reverse transcriptase K101E/G190A double mutant to IC50 for HIV1 isolate NL4-3 harboring wild type reverse transcriptase by phenoscreen assay in presence of 40% normal human serum; format: functional
[5] = tested on: Human immunodeficiency virus 1; test: Antiviral activity against HIV1 isolate NL4-3 harboring reverse transcriptase K103N/G190A double mutant assessed as inhibition of viral replication by phenoscreen assay in presence of 40% normal human serum; format: functional, organism-based; settings: Human immunodeficiency virus 1, isolate NL4-3
[6] = tested on: Human immunodeficiency virus 1; test: Antiviral activity against HIV1 isolate NL4-3 harboring reverse transcriptase K103N/Y181C double mutant assessed as inhibition of viral replication by phenoscreen assay in presence of 40% normal human serum; format: functional, organism-based; settings: Human immunodeficiency virus 1, isolate NL4-3
[7] = tested on: Human immunodeficiency virus 1; test: Ratio IC50 for HIV1 isolate NL4-3 harboring reverse transcriptase K103N/Y181C/G190A mutant to IC50 for HIV1 isolate NL4-3 harboring wild type reverse transcriptase by phenoscreen assay in presence of 40% normal human serum; format: functional
[8] = tested on: Human immunodeficiency virus 1; test: Ratio IC50 for HIV1 isolate NL4-3 harboring reverse transcriptase K103N/P225H double mutant to IC50 for HIV1 isolate NL4-3 harboring wild type reverse transcriptase by phenoscreen assay in presence of 40% normal human serum; format: functional
[9] = tested on: Human immunodeficiency virus 1; test: Antiviral activity against HIV1 R8 harboring reverse transcriptase K103N mutant infected in human MT4 cells assessed as inhibition of viral spread in presence of 10% fetal bovine serum; format: functional; settings: Human immunodeficiency virus 1, R8, MT4; read-out: CIC95
[10] = tested on: Human immunodeficiency virus 1; test: Ratio IC50 for HIV1 isolate NL4-3 harboring reverse transcriptase Y181C/G190A double mutant to IC50 for HIV1 isolate NL4-3 harboring wild type reverse transcriptase by phenoscreen assay in presence of 40% normal human serum; format: functional
[11] = tested on: Human immunodeficiency virus 1; test: Antiviral activity against HIV1 isolate NL4-3 harboring reverse transcriptase K101E/G190A double mutant assessed as inhibition of viral replication by phenoscreen assay in presence of 40% normal human serum; format: functional, organism-based; settings: Human immunodeficiency virus 1, isolate NL4-3
[12] = tested on: Human immunodeficiency virus 1; test: Antiviral activity against HIV1 isolate NL4-3 harboring reverse transcriptase V106A/G190A/F227L mutant assessed as inhibition of viral replication by phenoscreen assay in presence of 40% normal human serum; format: functional, organism-based; settings: Human immunodeficiency virus 1, isolate NL4-3
[13] = tested on: Human immunodeficiency virus 1; test: Antiviral activity against HIV1 isolate NL4-3 harboring reverse transcriptase G190A mutant assessed as inhibition of viral replication by phenoscreen assay in presence of 40% normal human serum; format: functional, organism-based; settings: Human immunodeficiency virus 1, isolate NL4-3
[14] = tested on: Human immunodeficiency virus 1; test: Ratio IC50 for HIV1 isolate NL4-3 harboring reverse transcriptase G190A mutant to IC50 for HIV1 isolate NL4-3 harboring wild type reverse transcriptase by phenoscreen assay in presence of 40% normal human serum; format: functional
[15] = tested on: Human immunodeficiency virus 1; test: Antiviral activity against HIV1 isolate NL4-3 harboring reverse transcriptase K103N mutant assessed as inhibition of viral replication by phenoscreen assay in presence of 40% normal human serum; format: functional, organism-based; settings: Human immunodeficiency virus 1, isolate NL4-3
[16] = tested on: Human immunodeficiency virus 1; test: Antiviral activity against HIV1 isolate NL4-3 harboring wild type reverse transcriptase assessed as inhibition of viral replication by phenoscreen assay in presence of 40% normal human serum; format: functional, organism-based; settings: Human immunodeficiency virus 1, isolate NL4-3
[17] = tested on: Human immunodeficiency virus 1; test: Ratio IC50 for HIV1 isolate NL4-3 harboring reverse transcriptase V106A/G190A/F227L mutant to IC50 for HIV1 isolate NL4-3 harboring wild type reverse transcriptase by phenoscreen assay in presence of 40% normal human serum; format: functional
[18] = tested on: Human immunodeficiency virus 1; test: Ratio IC50 for HIV1 isolate NL4-3 harboring reverse transcriptase Y188L mutant to IC50 for HIV1 isolate NL4-3 harboring wild type reverse transcriptase by phenoscreen assay in presence of 40% normal human serum; format: functional
[19] = tested on: Human immunodeficiency virus 1; test: Antiviral activity against HIV1 R8 harboring wild type reverse transcriptase infected in human MT4 cells assessed as inhibition of viral spread in presence of 10% fetal bovine serum; format: functional; settings: Human immunodeficiency virus 1, R8, MT4; read-out: CIC95
[20] = tested on: Human immunodeficiency virus 1; test: Antiviral activity against HIV1 isolate NL4-3 harboring reverse transcriptase Y181C mutant assessed as inhibition of viral replication by phenoscreen assay in presence of 40% normal human serum; format: functional, organism-based; settings: Human immunodeficiency virus 1, isolate NL4-3
[21] = tested on: Human immunodeficiency virus 1; test: Antiviral activity against HIV1 isolate NL4-3 harboring reverse transcriptase L100I mutant assessed as inhibition of viral replication by phenoscreen assay in presence of 40% normal human serum; format: functional, organism-based; settings: Human immunodeficiency virus 1, isolate NL4-3
[22] = tested on: Human immunodeficiency virus 1; test: Antiviral activity against HIV1 R8 harboring reverse transcriptase Y181C mutant infected in human MT4 cells assessed as inhibition of viral spread in presence of 10% fetal bovine serum; format: functional; settings: Human immunodeficiency virus 1, R8, MT4; read-out: CIC95
[23] = tested on: Human immunodeficiency virus 1; test: Antiviral activity against HIV1 isolate NL4-3 harboring reverse transcriptase K101E/Y181C/G190A mutant assessed as inhibition of viral replication by phenoscreen assay in presence of 40% normal human serum; format: functional, organism-based; settings: Human immunodeficiency virus 1, isolate NL4-3
[24] = tested on: Human immunodeficiency virus 1; test: Ratio IC50 for HIV1 isolate NL4-3 harboring reverse transcriptase K103N/V179E double mutant to IC50 for HIV1 isolate NL4-3 harboring wild type reverse transcriptase by phenoscreen assay in presence of 40% normal human serum; format: functional
[25] = molecular target: Human immunodeficiency virus type 1 reverse transcriptase (Human immunodeficiency virus 1, UniProt Q72547); test: Inhibition of wild type HIV1 reverse transcriptase by SPA assay
[26] = tested on: Human immunodeficiency virus 1; test: Ratio IC50 for HIV1 isolate NL4-3 harboring reverse transcriptase L100I mutant to IC50 for HIV1 isolate NL4-3 harboring wild type reverse transcriptase by phenoscreen assay in presence of 40% normal human serum; format: functional
[27] = tested on: Human immunodeficiency virus 1; test: Ratio IC50 for HIV1 isolate NL4-3 harboring reverse transcriptase G190S mutant to IC50 for HIV1 isolate NL4-3 harboring wild type reverse transcriptase by phenoscreen assay in presence of 40% normal human serum; format: functional
[28] = tested on: Human immunodeficiency virus 1; test: Ratio IC50 for HIV1 isolate NL4-3 harboring reverse transcriptase Y181C mutant to IC50 for HIV1 isolate NL4-3 harboring wild type reverse transcriptase by phenoscreen assay in presence of 40% normal human serum; format: functional
[29] = tested on: Human immunodeficiency virus 1; test: Antiviral activity against HIV1 R8 harboring reverse transcriptase infected in human MT4 cells assessed as inhibition of viral spread in presence of 50% normal human serum; format: functional; settings: Human immunodeficiency virus 1, R8, MT4; read-out: CIC95
[30] = tested on: Human immunodeficiency virus 1; test: Antiviral activity against HIV1 isolate NL4-3 harboring reverse transcriptase Y181C/G190A double mutant assessed as inhibition of viral replication by phenoscreen assay in presence of 40% normal human serum; format: functional, organism-based; settings: Human immunodeficiency virus 1, isolate NL4-3
[31] = tested on: Human immunodeficiency virus 1; test: Antiviral activity against HIV1 isolate NL4-3 harboring reverse transcriptase Y188L mutant assessed as inhibition of viral replication by phenoscreen assay in presence of 40% normal human serum; format: functional, organism-based; settings: Human immunodeficiency virus 1, isolate NL4-3
[32] = tested on: Human immunodeficiency virus 1; test: Antiviral activity against HIV1 isolate NL4-3 harboring reverse transcriptase K103N/V179E double mutant assessed as inhibition of viral replication by phenoscreen assay in presence of 40% normal human serum; format: functional, organism-based; settings: Human immunodeficiency virus 1, isolate NL4-3
[33] = molecular target: Human immunodeficiency virus type 1 reverse transcriptase (Human immunodeficiency virus 1, UniProt Q72547, K103N); test: Inhibition of HIV1 reverse transcriptase K103N mutant by SPA assay
[34] = tested on: Human immunodeficiency virus 1; test: Ratio IC50 for HIV1 isolate NL4-3 harboring reverse transcriptase K101E/Y181C/G190A mutant to IC50 for HIV1 isolate NL4-3 harboring wild type reverse transcriptase by phenoscreen assay in presence of 40% normal human serum; format: functional
[35] = tested on: Human immunodeficiency virus 1; test: Ratio IC50 for HIV1 isolate NL4-3 harboring reverse transcriptase K103N/G190A double mutant to IC50 for wild type HIV1 isolate NL4-3 harboring reverse transcriptase by phenoscreen assay in presence of 40% normal human serum; format: functional
[36] = molecular target: Human immunodeficiency virus type 1 reverse transcriptase (Human immunodeficiency virus 1, UniProt Q72547, Y181C); test: Inhibition of HIV1 reverse transcriptase Y181C mutant by SPA assay
[37] = tested on: Human immunodeficiency virus 1; test: Ratio IC50 for HIV1 isolate NL4-3 harboring reverse transcriptase K103N mutant to IC50 for HIV1 isolate NL4-3 harboring wild type reverse transcriptase by phenoscreen assay in presence of 40% normal human serum; format: functional
[38] = tested on: Human immunodeficiency virus 1; test: Antiviral activity against HIV1 isolate NL4-3 harboring reverse transcriptase K103N/Y181C/G190A mutant assessed as inhibition of viral replication by phenoscreen assay in presence of 40% normal human serum; format: functional, organism-based; settings: Human immunodeficiency virus 1, isolate NL4-3

N#Cc1cc(Cl)cc(Oc2cc(OCc3cc(-c4ccncc4)[nH]n3)ccc2Cl)c1
IC50 [1]: 32.4 nM | IC50 [2]: 161 nM | Ratio IC50 [3]: >222 | Ratio IC50 [4]: 26.2 | IC50 [5]: 120 nM | IC50 [6]: > 1000 nM | Ratio IC50 [7]: >222 | Ratio IC50 [8]: 7.2 | IC95 [9]: 102 nM | Ratio IC50 [10]: 29.1 | IC50 [11]: 118 nM | IC50 [12]: > 1000 nM | IC50 [13]: 22.3 nM | Ratio IC50 [14]: 5 | IC50 [15]: 19.7 nM | IC50 [16]: 4.5 nM | Ratio IC50 [17]: >222 | Ratio IC50 [18]: >222 | IC95 [19]: 25 nM | IC50 [20]: 36.2 nM | IC50 [21]: 21.9 nM | IC95 [22]: 278 nM | IC50 [23]: 332 nM | Ratio IC50 [24]: 20 | Ki [25]: 0.7 nM | Ratio IC50 [26]: 4.9 | Ratio IC50 [27]: 35.7 | Ratio IC50 [28]: 8 | IC95 [29]: 102 nM | IC50 [30]: 131 nM | IC50 [31]: > 1000 nM | IC50 [32]: 90.2 nM | Ki [33]: 4.2 nM | Ratio IC50 [34]: 73.7 | Ratio IC50 [35]: 26.6 | Ki [36]: 4.6 nM | Ratio IC50 [37]: 4.4 | IC50 [38]: > 1000 nM
